Patent US5728686A, “Alkylxanthine phosphonates and alkylxanthine phosphine oxides and their use as pharmaceuticals” (Hoechst Aktiengesellschaft, priority 1996, dated 1998)
Values after ≈ are worked out from the molar mass of the structure shown.

How the values were obtained:
[1] = tested on: isolated guinea pig trachea, agonist substance P; assay: antagonist of substance P-induced contraction of isolated guinea pig trachea; format: cell-based; settings: Cavia porcellus, individual doses, 37° C., read-out: Anticontractile action (trachea), SP antagonism: concentration range for dilatation corresponding to ED50 range
Source text: 3. Activity as antagonist of the contraction of isolated guinea pig trachea
The compounds of the formula I are used as antagonists of the contraction of isolated guinea pig trachea. The agonists employed were PGF2α (Upjohn, Germany), calcium ionophore A23187 (Calbiochem, Bad Soden, Germany), and substance P (American Peptide Comp., USA):
The antagonism is possible on the one hand due to specific receptor antagonists, and on the other hand also due to inhibition of the subsequent signal pathway. Preparations which directly or indirectly increase the intracellular concentration of cyclic nucleotides in particular show spasmolytic properties here.
(§1) Preparation of the organ sections and experimental procedure:
The guinea pig is sacrificed by means of terminal laughing gas anaesthesia. The trachea is exposed along its entire length and cut into 15 individual cartilage rings. 5 rings in each case are tied together to give a chain and fixed in the organ bath under a preload of 3 g. After an equilibration time of 45 minutes, a contraction is produced using the agonist. The antagonist (test preparation) is added cumulatively on the plateau of the maximum. Evaluation is carried out in % force change relative to the contraction maximum. The experimental procedure is carried out at 37° C.; the physiological nutrient solution used is a modified Krebs-Henseleit solution through which is bubbled 95% by volume of O2, 5% by volume of CO2.
Experimental animals: albino guinea pigs (Hattersheim Animal Breeding Institute, Kastengrund, Germany), weight: 200 to 300 g, sex male or female.
Vehicle: double-distilled water, ethanol or isopropanol; administration: into the organ bath number of administration: cumulative, in SP individual doses
All numerical values are indicated in the unit μg/ml and relate to the concentration range of the tested compound of the formula I according to the invention (see example numbers in Table 1) which is necessary in order to cause a dilatation which corresponds to the ED50 range.

[2] = tested on: muscle group (gastrocnemius, plantaris and soleus) of the immobilized right rear extremity; assay: rat muscle function test: direct electrical stimulation of muscle group after 3 weeks' immobilization; format: in vivo, male Wistar rats; settings: oral, 1x per day for 3 weeks, as a rule 25 mg/kg, ≤-12% classified as active; for Force (force under the contraction curve, right/left difference): isometric stimulation, control difference approx. 25%; for Work (performed work, right/left difference): isotonic stimulation, control approx. -25%
Source text: (§2) 1. Activity in the rat muscle function test
(§3) Male Wistar rats (body weight about 300 g) were kept under standard conditions with feed and water ad libitum. The right rear extremity was immobilized by fitting a kind of "shoe" to the animals under short-term anaesthesia. Two ergonomically fitted halves of the "shoe" were cast from a liquid plastic material which is also used for the production of dental prostheses, these were put onto the animal under brief anaesthesia and joined with the aid of a wire. The material is light but hard, so that the animals cannot gnaw the material, and the "shoe" can be opened at any time to examine the condition of the immobilized extremity. The two halves were moreover padded out with chamois leather in order to avoid compressions and possible injuries due to rubbing. The system also has the advantage that the angle of immobilization is standardized in all animals; this would not be possible with a plaster cast. The chosen angle allows the animals to take up a normal sitting position despite the "shoe" and also to carry the body weight using this extremity. Only complete stretching or bending of the leg is impossible.
(§4) After 3 weeks' immobilization of the right rear extremity and simultaneous oral administration of test preparations (1× per day using a stomach tube; as a rule 25 mg/kg of body weight, in carboxymethylcellulose, the animals were weighed and anaesthetized with pentobarbital (35 mg/kg i.p.). Functional parameters were measured during direct electrical stimulation of a muscle group (gastrocnemius, plantaris and soleus). This muscle group, merely called "muscle" in the following, was exposed at the ankle tendon and tied to a force transducer via the tendon.
To determine the contractile force, the muscles were stimulated isometrically, i.e. a preload of 0.5N was applied and the muscle was stimulated by means of a series of electrical pulses, which led to a maximum contraction, every 0.7 sec for 80 msec for a period of 15 min. […] The area under this contraction curve was evaluated and the difference in percent between the right atrophic and left normal muscle compared (force under the contraction curve as difference in percent (Δ%)). The difference in the control group is approximately 25%.
An isotonic muscle stimulation was used to determine the performed work of the muscle over time. In this type of measurement, the shortening of the muscle during contraction is used as a basis. To this end, a preload which corresponds to the body weight was applied to the muscles. A series of stimulation pulses (80 msec) were triggered every 3 sec and the muscle was stimulated for 15 min. The data (contraction force and distance travelled) were converted to the work performed in the unit J using an automated system. The difference in the work performed between the immobilized atrophic and the normal muscle in the control animals was approximately -25%.
Values which are positive indicate that the functional parameters of the immobilized muscle were better than those of the contralateral normal muscle.

[3] = tested on: soleus muscle; assay: rat muscle function test: muscle weight (atrophy of immobilized extremity); format: in vivo, male Wistar rats; settings: oral, 1x per day for 3 weeks, as a rule 25 mg/kg, difference ≤25% classified as an effect
Source text: as §2, §3
In spite of this, a significant decrease in the skeletal muscle mass (atrophy) of the immobilized extremity occurred, to be precise up to -35% in comparison with the contralateral nonimmobilized rear extremity. As the soleus muscle was the most severely affected, the changes in muscle weight after administration of preparation shown in Table 1 relate to this muscle. A difference of ≤25% between the right immobilized and left non-immobilized rear extremity was classified as an effect.
as §4

[4] = tested on: isolated guinea pig lung strips, leukotriene D4 (LTD4); assay: antagonist of LTD4-induced contraction of isolated guinea pig lung strips; format: cell-based; settings: Cavia porcellus, read-out: Anticontractile action (lung), LTD4: concentration range corresponding to the IC50 value
Source text: (§5) 4. Activity as an antagonist of the contraction of isolated guinea pig lung strips
(§6) The test carried out is based on the same principle as the test indicated in the pharmacological test 3; however, lung strips are used here.
as §1
(§7) The guinea pig is sacrificed under laughing gas anaesthesia. The entire pulmonary tract is exposed starting from the trachea. The lobes of the lung are cut in a circular fashion such that 3 mm wide strips are formed. The strips of the upper lobes are divided in order to obtain a total of six approximately equal size strips. The strips are suspended in the organ baths under a preload of 4 g. The nutrient solutions used are modified Krebs Henseleit solutions. When using "Platelet activating factor" (PAF) as an […], the composition of this solution corresponds to that for the agonist SP in "Test 3"; for the agonist LTD4 a Krebs Henseleit solution as in the case of the agonist KCl (Test 3) is used. 95% by volume O2, 5% by volume CO2 is used for bubbling through the bath; the bath temperature is 37° C. The experimental procedure is carried out in a therapeutically cumulative methodology, using the dosage graduations 1, 3, 6 and 10 μg/ml.
(§8) The experimental animals, organ bath, vehicles and manner of administration correspond to that stated in pharmacological test 3.
(§9) All numerical values are indicated in the unit μg/ml and relate to the concentration range of tested compound of the formula I (see example numbers in Table 1) which is necessary in order to cause a contraction which corresponds to the IC50 value.

[5] = tested on: phosphodiesterase III; assay: inhibition of phosphodiesterase III activity; format: biochemical; settings: at 100 μM
Protocol: 5. Inhibition of phosphodiesterase III activity
The test is carried out using phosphodiesterase from Boehringer Mannheim (Mannheim, Germany), Order No. 108 243 according to the method of T. SAEKI, I. SAITO, Biochem. Pharm. 46, No. 5, […], pages 833-839.
All numerical values are indicated in % inhibition of the enzyme activity at 100 μM of the corresponding compound of the formula I.

[6] = tested on: isolated guinea pig lung strips, Platelet activating factor (PAF); assay: antagonist of PAF-induced contraction of isolated guinea pig lung strips; format: cell-based; settings: Cavia porcellus, read-out: Anticontractile action (lung), PAF: concentration range corresponding to the IC50 value
Source text: as §5, §6, §1, §7, §8, §9

SMILES	EC50 [1]	Force (force under the contraction curve, right/left difference) [2]	Work (performed work, right/left difference) [2]	Muscle weight (right/left difference) [3]	IC50 [4]	PDE III Inhibition [5]	IC50 [6]
CCOP(=O)(CCCCn1cnc2c1c(=O)n(CCC(C)C)c(=O)n2C)OCC [Example 15, Diethyl [4-(1-(3-methylbutyl)-3-methylxanthin-7-yl)butyl]phosphonate]	30 to 60 µg/mL (≈ 70 to 140 µM)	+5 Δ %	+2 Δ %	0 Δ %			
CCCn1c(=O)c2c(ncn2CCCP(=O)(OCC)OCC)n(CCC)c1=O [Example 9, Diethyl [3-(1,3-dipropylxanthin-7-yl)propyl]phosphonate]	10 to 30 µg/mL (≈ 24.1 to 72.4 µM)				3 to 6 µg/mL (≈ 7.24 to 14.5 µM)		
CCOP(=O)(CCCCCn1c(=O)c2c(ncn2Cc2ccccc2)n(C)c1=O)OCC [Example 43, Diethyl [5-(7-benzyl-3-methylxanthin-1-yl)pentyl]phosphonate]					1 to 6 µg/mL (≈ 2.16 to 13 µM)	52%	1 to 3 µg/mL (≈ 2.16 to 6.49 µM)
CCCn1cnc2c1c(=O)n(CCCCP(=O)(OCC)OCC)c(=O)n2C [Example 32, Diethyl [4-(3-methyl-7-propyl-xanthin-1-yl)butyl]phosphonate]	10 to 30 µg/mL (≈ 25 to 74.9 µM)	-9 Δ %	-1 Δ %	0 Δ %	6 to 10 µg/mL (≈ 15 to 25 µM)	65%	6 to 10 µg/mL (≈ 15 to 25 µM)
CCCCn1cnc2c1c(=O)n(CCCCCP(=O)(OCC)OCC)c(=O)n2C [Example 48, Diethyl [5-(7-butyl-3-methylxanthin-1-yl)pentyl]phosphonate]		-3 Δ %	-7 Δ %	0 Δ %		52%	
CCOP(=O)(CCCn1c(=O)c2c(ncn2CC2CC2)n(C)c1=O)OCC [Example 46, Diethyl [3-(7-cyclopropylmethyl-3-methylxanthin-1-yl)propyl]phosphonate]		+1 Δ %	+9 Δ %	-17 Δ %		67%	
CCOP(=O)(CCCn1c(=O)c2c(ncn2C(C)C)n(C)c1=O)OCC [Example 47]	10 to 30 µg/mL (≈ 25.9 to 77.6 µM)		-6 Δ %	0 Δ %		64%	
CCOP(=O)(CCCn1c(=O)c2c(ncn2C)n(C)c1=O)OCC [Example 33, Diethyl [3-(3,7-dimethylxanthin-1-yl)propyl]phosphonate]	10 to 30 µg/mL (≈ 27.9 to 83.7 µM)	-7 Δ %	-10 Δ %	-16 Δ %			3 to 6 µg/mL (≈ 8.37 to 16.7 µM)
CCOP(=O)(CCCCCn1c(=O)c2c(ncn2CC2CC2)n(C)c1=O)OCC [Example 49, Diethyl [5-(7-cyclopropylmethyl-3-methylxanthin-1-yl)pentyl]phosphonate]		-5 Δ %	-5 Δ %	-25 Δ %	3 to 6 µg/mL (≈ 7.03 to 14.1 µM)	57%	
CCCn1cnc2c1c(=O)n(CCCP(=O)(OCC)OCC)c(=O)n2C [Example 55, Diethyl [3-(3-methyl-7-propylxanthin-1-yl)propyl]phosphonate]						59%	1 to 3 µg/mL (≈ 2.59 to 7.76 µM)
CCCn1cnc2c1c(=O)n(CCCCCP(=O)(OCC)OCC)c(=O)n2CC [Example 57, Diethyl [5-(3-ethyl-7-propylxanthin-1-yl)pentyl]phosphonate]		-5 Δ %	-8 Δ %	-17 Δ %		70%	
CCCn1cnc2c1c(=O)n(CCCCCP(=O)(OCC)OCC)c(=O)n2C [Example 17, Diethyl [5-(3-methyl-7-propylxanthin-1-yl)-pentyl]phosphonate]	30 to 60 µg/mL (≈ 72.4 to 145 µM)	+2 Δ %	-10 Δ %	0 Δ %	1 to 3 µg/mL (≈ 2.41 to 7.24 µM)	77%	1 to 3 µg/mL (≈ 2.41 to 7.24 µM)
CCOP(=O)(CCCCCn1c(=O)c2c(ncn2CC)n(C)c1=O)OCC [Example 20, Diethyl 5-(7-ethyl-3-methylxanthin-1-yl)pentylphosphonate]	10 to 30 µg/mL (≈ 25 to 74.9 µM)					65%	
